Results as given in EPA's ToxValDB 9.5 (doi:10.2903/j.efsa.2009.1415).
In brackets after ≈: the same amount, converted by molar mass.

Tests used:
Anas platyrhynchos = details: short-term; oral; feed; mortality
Pimephales promelas = details: chronic/long-term; duration: 35 days; growth
Daphnia magna = details: chronic/long-term; duration: 21 days; reproduction
Apis mellifera = details: acute; duration: 48 hours; dermal; mortality
Cyprinus carpio = details: acute; duration: 96 hours; mortality
Typhlodromus pyri = experiment: LR50; higher = less toxic; details: not reported; mortality

CCCOCC(=Nc1ccc(Cl)cc1C(F)(F)F)n1ccnc1 [Triflumizole]
LD50 (Rattus norvegicus; acute, oral, mortality): 1060 mg/kg-day | NOAEL (Rattus norvegicus; chronic, duration: 2 years, organ weight): 3.5 mg/kg-day | NOAEL (Rattus norvegicus; developmental, development): 10 mg/kg-day | NOAEL (Rattus norvegicus; reproduction developmental, reproduction): 4.8 mg/kg-day | NOAEL (Rattus norvegicus; subchronic, duration: 90 days, organ weight): 4.1 mg/kg-day | LC50 (Anas platyrhynchos): > 1430 mg/kg-day | NOEC (Pimephales promelas): 0.044 mg/L | NOEC (Daphnia magna): 0.18 mg/L | LD50 (Apis mellifera): > 20 µg/piece | LD50 (Colinus virginianus; acute, oral, mortality): > 2510 mg/kg-day | NOEC (Colinus virginianus; reproduction developmental): ≥ 97.2 mg/kg-day | LC50 (Cyprinus carpio): 1.28 µg/mL (≈ 3.7 µM) | LR50 (Typhlodromus pyri): 63 g/ha
